Laboratory results as given in publication PMC8041433 (Environmental Health Perspectives, 2021).
“And” between values parts separate entries of the source, which are not always exact repeats. Equal entries are not always repeated. Structures can show the parent of a compound that is named as a salt. Where two headings read alike, the source gives them in different places.

Assays:
AChE in SH-SY5Y cells = AChE in SH-SY5Y cells (Homo sapiens, UniProt P22303); assay: cell-based
recombinant human AChE [1] = target: T1, recombinant human AChE (Homo sapiens, UniProt P22303)
T1 sequence (P22303 32-614): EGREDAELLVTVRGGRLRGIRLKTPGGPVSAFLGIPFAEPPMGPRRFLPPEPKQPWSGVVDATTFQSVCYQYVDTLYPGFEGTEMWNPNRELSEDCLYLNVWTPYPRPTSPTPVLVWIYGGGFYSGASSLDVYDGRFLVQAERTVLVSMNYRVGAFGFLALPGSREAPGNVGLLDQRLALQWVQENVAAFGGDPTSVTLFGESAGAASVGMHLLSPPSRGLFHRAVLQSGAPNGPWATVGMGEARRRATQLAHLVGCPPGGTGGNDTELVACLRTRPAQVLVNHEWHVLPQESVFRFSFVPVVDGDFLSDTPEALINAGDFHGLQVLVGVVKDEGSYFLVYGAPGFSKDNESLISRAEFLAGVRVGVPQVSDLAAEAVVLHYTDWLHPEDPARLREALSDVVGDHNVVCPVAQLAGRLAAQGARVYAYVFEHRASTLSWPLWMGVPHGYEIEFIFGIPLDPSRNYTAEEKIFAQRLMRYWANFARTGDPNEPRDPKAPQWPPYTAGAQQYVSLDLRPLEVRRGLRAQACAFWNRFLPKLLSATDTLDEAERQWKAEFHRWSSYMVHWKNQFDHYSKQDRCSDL

recombinant human AChE [2] = target: T1, recombinant human AChE; assay: biochemical

Chain of AChE in SH-SY5Y cells (P22303 32-614): as above

SMILES	CC-v2 (curve classes) (AChE in SH-SY5Y cells)	IC50 (AChE in SH-SY5Y cells; read-out: IC50)	CC-v2 (curve classes) (recombinant human AChE [1])	Efficacy (recombinant human AChE [1])	CC-v2 (curve classes) (recombinant human AChE [2])	IC50 (recombinant human AChE [2]; read-out: IC50)	Efficacy (recombinant human AChE [2])	IC50 (AChE in SH-SY5Y cells; IC50 (uM))	IC50 (recombinant human AChE [2]; IC50 (uM))	AChE inhibition (result in words) (recombinant human AChE [2])	IC50 (recombinant human AChE [1]) [µM]
CC(C)=CCN1CC[C@@]2(C)c3cc(O)ccc3C[C@@H]1[C@@H]2C.O=C(O)CCC(=O)O [(-)-Pentazocine succinate, reference compound]	-2.1	31.2 µM and 35.1 µM and 34.8 µM and 24.7 µM and 31 µM	4	0	-2.4						
CCCCCCCCCCCCc1ccc(S(=O)(=O)O)cc1 [Dodecylbenzenesulfonic acid]		79.6 µM and 89.4 µM and 71 µM	4		-2.1 and -1.1	63.3 µM and 56.4 µM and 39.9 µM					
CCN=C1C=CC(=C(c2ccc(N(CC)CC)cc2)c2ccc(N(CC)CC)cc2)c2ccccc21.Cl [Basic Blue 7]	-2.1	62.9 µM and 70.6 µM and 79.2 µM	4	0	-1.1	19.9 µM	-96.089				
CCCCC(CC)CNC(=N)NC(=N)NCCCCCCNC(=N)NC(=N)NCC(CC)CCCC (centres unmarked) [Alexidine dihydrochloride]			4	11.253	-1.1		-96.324	43.6 µM	17.4 µM		
COCCCOc1ccnc(C[S+]([O-])c2nc3ccccc3[nH]2)c1C (centres unmarked) [Rabeprazole sodium]	-2.1 and -2.2		1.1	92.667	4		-15.052	63.1 µM and 70.7 µM			
O=P(Oc1ccccc1)(Oc1ccccc1)Oc1ccccc1 [Triphenyl phosphate]	-1.1 and -2.1		-2.1		-1.1			20 µM and 19.9 µM and 22.3 µM and 35.6 µM and 31.6 µM and 28.1 µM and 25.2 µM			
CN1CCCC(n2nc(Cc3ccc(Cl)cc3)c3ccccc3c2=O)CC1 (centres unmarked) [Azelastine hydrochloride]	-2.1		4	0	-2.2		-73.562	17.4 µM and 15.5 µM	27.5 µM		
CCCCCCCCCCCCCC[n+]1ccccc1 [Tetradecylpyridinium bromide]	-1.1 and -2.1		4	0	-2.1		-102.568	31.7 µM and 39.9 µM	56.4 µM		
COc1cc2nc(N3CCN(C(=O)c4ccco4)CC3)nc(N)c2cc1OC [Prazosin]				0			-14.406	15.1 µM and 16.9 µM and 9.52 µM			
CCOP(=S)(OCC)Oc1cc(C)nc(N(CC)CC)n1 [Pirimiphos-ethyl]			4	-16.211	4		-15.947			did not show effects	
C[C@H]1[C@@H]2Cc3ccc(O)cc3[C@@]1(C)CCN2C.C[C@H]1[C@@H]2Cc3ccc(O)cc3[C@@]1(C)CCN2C.O=C(O)/C=C/C(=O)O [(+)-Metazocine fumarate (2:1)]	-1.1	8.52 µM and 10.7 µM and 15.2 µM	-2.1	-75.846	-2.1	33.9 µM	-92.558				191
Cl.O=C(c1ccc(F)cc1)C1CCN(CCn2c(=S)[nH]c3ccccc3c2=O)CC1 [Altanserin hydrochloride]	-2.1	13.8 µM	4	0	4		0				
NC(=O)N=NC(N)=O [Azodicarbonamide]			4	0				71 µM and 63.5 µM and 71.2 µM and 79.6 µM and 89.6 µM	63.3 µM and 71.2 µM		
CCOC(=O)COc1ccc2c(C)c(CCN(CC)CC)c(=O)oc2c1Cl.Cl [Cloricromen hydrochloride]	-2.1	13.8 µM and 15.5 µM	4	-27.609	-2.1	15.5 µM	-70.529				
CNC(=O)O/N=C/C(C)(C)S(C)(=O)=O [Aldoxycarb]	-2.1				-1.1 and -2.1						
COc1cc2nc(N3CCN(C(=O)C4CCCO4)CC3)nc(N)c2cc1OC (centres unmarked) [Terazosin hydrochloride]			4	0	-2.2		-49.646	30.9 µM and 27.5 µM	38.9 µM		

SMILES	CC-v2 (curve classes) (AChE in SH-SY5Y cells)	IC50 (AChE in SH-SY5Y cells; read-out: IC50)	CC-v2 (curve classes) (recombinant human AChE [1])	Efficacy (recombinant human AChE [1])	CC-v2 (curve classes) (recombinant human AChE [2])	IC50 (recombinant human AChE [2]; read-out: IC50)	Efficacy (recombinant human AChE [2])	IC50 (AChE in SH-SY5Y cells; IC50 (uM))	IC50 (recombinant human AChE [2]; IC50 (uM))	AChE inhibition (result in words) (recombinant human AChE [2])	IC50 (recombinant human AChE [1]) [µM]
Cc1nccn1CC1CCc2c(c3ccccc3n2C)C1=O (centres unmarked) [Ondansetron]			4	0	4		-23.749	30.9 µM and 34.7 µM and 38.9 µM			
COP(=S)(OC)SCn1nnc2ccccc2c1=O [Azinphos-methyl]	-2.1 and -1.1		4								
COc1ccc2c(c1OC)CN1CCc3cc4c(cc3[C@@H]1C2)OCO4 [Canadine]	-1.1 and -2.1		-3	-45.32	-1.1		-74.441	8.71 µM and 11 µM and 9.77 µM			
CCOP(=O)(OCC)Oc1ccc([N+](=O)[O-])cc1 [Paraoxon]	-1.1		-1.1		-1.1						
CCN(CC)C(=O)[C@@H]1C=C2c3cccc4[nH]cc(c34)C[C@H]2N(C)C1 [Lysergide]	-2.1		4	-29.643	-2.2		-56.682	73.8 µM and 93 µM	104 µM		
Nc1c(/N=N/c2ccc(-c3ccc(/N=N/c4cc(S(=O)(=O)O)c5ccccc5c4N)cc3)cc2)cc(S(=O)(=O)O)c2ccccc12 [C.I. Direct Red 28]			4	13.368	-1.2		-36.697	79.6 µM and 71 µM and 89.4 µM	10 µM		
C=CCN1CC[C@]23CCCC[C@H]2[C@H]1Cc1ccc(O)cc13 [Levallorphan]	-2.1		4	0	4		-27.829				
COc1cc(C(=O)NCc2ccc(OCCN(C)C)cc2)cc(OC)c1OC [Trimethobenzamide hydrochloride]	-2.1 and -1.1		4	-14.276	-1.1		-75.922				
CN(C)C(=S)SC(=S)N(C)C [Tetramethylthiuram monosulfide]			4		4			31.7 µM and 72.8 µM and 63.3 µM and 56.4 µM			
CNC(=O)/C=C(\C)OP(=O)(OC)OC [Monocrotophos]	-2.1		4	-13.186	-2.2		-46.284	39.9 µM and 35.6 µM	63.3 µM		
COc1cc2nc(N3CCN(C(=O)C4COc5ccccc5O4)CC3)nc(N)c2cc1OC (centres unmarked) [Doxazosin mesylate]			4	0	-2.2		-37.943				
CNC(=C[N+](=O)[O-])NCCSCc1ccc(CN(C)C)o1 [Ranitidine, reference compound]	-1.1										
COP(N)(=O)SC (centres unmarked) [Methamidophos]	-2.1				-2.1						
CCOP(=S)(OCC)Oc1cc(Cl)c(Br)cc1Cl [Bromophos-ethyl]			-1.1	-91.453	-3		-50.884				
CC1(C)Cc2cccc(O)c2O1 [2,3-Dihydro-2,2-dimethyl-7-benzofuranol, reference compound]										inactive	
CCOC(=O)CC(SP(=S)(OC)OC)C(=O)OCC (centres unmarked) [malathion]										not identified to inhibit AChE	
